According to ChEMBL document CHEMBL1275510, “Ceftibuten resistance and treatment failure of Neisseria gonorrhoeae infection” (Antimicrob Agents Chemother, 2008):
≈ marks a conversion by molar mass, not a printed value.

What was measured:
[1] = test system: Neisseria gonorrhoeae; assay: Antimicrobial activity against penicillin-,ofloxacin- and tetracyclin-resistant Neisseria gonorrhoeae multiantigen sequence type 835 isolate 1 harboring penA gene by Etest; format: functional
[2] = test system: Neisseria gonorrhoeae; assay: Antimicrobial activity against penicillin-,ofloxacin- and tetracyclin-resistant Neisseria gonorrhoeae multiantigen sequence type 835 isolate 2 harboring penA gene by Etest; format: functional
[3] = test system: Neisseria gonorrhoeae; assay: Antimicrobial activity against penicillin-,ofloxacin- and tetracyclin-resistant Neisseria gonorrhoeae multiantigen sequence type 835 isolate 3 harboring penA gene by Etest; format: functional
[4] = test system: Neisseria gonorrhoeae; assay: Antimicrobial activity against penicillin-,ofloxacin- and tetracyclin-resistant Neisseria gonorrhoeae multiantigen sequence type 835 isolate 4 harboring penA gene by Etest; format: functional
[5] = test system: Neisseria gonorrhoeae; assay: Antimicrobial activity against penicillin-,ofloxacin- and tetracyclin-resistant Neisseria gonorrhoeae multiantigen sequence type 835 isolate 5 harboring penA gene by Etest; format: functional
[6] = test system: Neisseria gonorrhoeae; assay: Antimicrobial activity against penicillin-,ofloxacin- and tetracyclin-resistant Neisseria gonorrhoeae multiantigen sequence type 835 isolate 6 harboring penA gene by Etest; format: functional
[7] = test system: Neisseria gonorrhoeae; assay: Antimicrobial activity against penicillin-,ofloxacin- and tetracyclin-resistant Neisseria gonorrhoeae multiantigen sequence type 835 isolate 7 harboring penA gene by Etest; format: functional
[8] = test system: Neisseria gonorrhoeae; assay: Antimicrobial activity against penicillin-,ofloxacin- and tetracyclin-resistant Neisseria gonorrhoeae multiantigen sequence type 835 isolate 8 harboring penA gene by Etest; format: functional
[9] = test system: Neisseria gonorrhoeae; assay: Antimicrobial activity against penicillin-,ofloxacin- and tetracyclin-resistant Neisseria gonorrhoeae multiantigen sequence type 835 isolate 9 harboring penA gene by Etest; format: functional
[10] = test system: Neisseria gonorrhoeae; assay: Antimicrobial activity against penicillin-,ofloxacin- and tetracyclin-resistant Neisseria gonorrhoeae multiantigen sequence type 835 isolate 10 harboring penA gene by Etest; format: functional
[11] = test system: Neisseria gonorrhoeae; assay: Antimicrobial activity against penicillin-,ofloxacin- and tetracyclin-resistant Neisseria gonorrhoeae multiantigen sequence type 2469 isolate 11 harboring penA gene by Etest; format: functional
[12] = test system: Neisseria gonorrhoeae; assay: Antimicrobial activity against penicillin-,ofloxacin- and tetracyclin-resistant Neisseria gonorrhoeae multiantigen sequence type 835 isolate 5 harboring penA gene by disk diffusion method; format: functional
[13] = test system: Neisseria gonorrhoeae; assay: Antimicrobial activity against penicillin-,ofloxacin- and tetracyclin resistant penA-negative Neisseria gonorrhoeae by […]; format: functional
[14] = test system: Neisseria gonorrhoeae; assay: Antimicrobial activity against penicillin-,ofloxacin- and tetracyclin resistant Neisseria gonorrhoeae by […]; format: functional
[15] = Oral bioavailability in Neisseria gonorrhoeae infected patient at 400 mg, po; format: ADME, organism-based; details: human, in vivo
[16] = Cmax in Neisseria gonorrhoeae infected patient at 400 mg, po; format: ADME, organism-based; parameters: dose 400 mg, route oral; details: human, in vivo
[17] = Half life in Neisseria gonorrhoeae infected patient at 400 mg, po; format: ADME, organism-based; details: human, in vivo
[18] = test system: Serum; assay: Protein binding in Neisseria gonorrhoeae infected patient serum at 400 mg, po; format: ADME, organism-based; details: human, in vivo
[19] = test system: Neisseria gonorrhoeae; assay: Antimicrobial activity against penicillin-,ofloxacin- and tetracyclin-resistant Neisseria gonorrhoeae multiantigen sequence type 835 isolate 1 harboring penA gene by agar dilution method; format: functional
[20] = test system: Neisseria gonorrhoeae; assay: Antimicrobial activity against penicillin-,ofloxacin- and tetracyclin-resistant Neisseria gonorrhoeae multiantigen sequence type 835 isolate 2 harboring penA gene by agar dilution method; format: functional
[21] = test system: Neisseria gonorrhoeae; assay: Antimicrobial activity against penicillin-,ofloxacin- and tetracyclin-resistant Neisseria gonorrhoeae multiantigen sequence type 835 isolate 3 harboring penA gene by agar dilution method; format: functional
[22] = test system: Neisseria gonorrhoeae; assay: Antimicrobial activity against penicillin-,ofloxacin- and tetracyclin-resistant Neisseria gonorrhoeae multiantigen sequence type 835 isolate 4 harboring penA gene by agar dilution method; format: functional
[23] = test system: Neisseria gonorrhoeae; assay: Antimicrobial activity against penicillin-,ofloxacin- and tetracyclin-resistant Neisseria gonorrhoeae multiantigen sequence type 835 isolate 5 harboring penA gene by agar dilution method; format: functional
[24] = test system: Neisseria gonorrhoeae; assay: Antimicrobial activity against penicillin-,ofloxacin- and tetracyclin-resistant Neisseria gonorrhoeae multiantigen sequence type 835 isolate 6 harboring penA gene by agar dilution method; format: functional
[25] = test system: Neisseria gonorrhoeae; assay: Antimicrobial activity against penicillin-,ofloxacin- and tetracyclin-resistant Neisseria gonorrhoeae multiantigen sequence type 835 isolate 6 harboring penA gene by disk diffusion method; format: functional
[26] = test system: Neisseria gonorrhoeae; assay: Antimicrobial activity against penicillin-,ofloxacin- and tetracyclin-resistant Neisseria gonorrhoeae multiantigen sequence type 835 isolate 7 harboring penA gene by disk diffusion method; format: functional
[27] = test system: Neisseria gonorrhoeae; assay: Antimicrobial activity against penicillin-,ofloxacin- and tetracyclin-resistant Neisseria gonorrhoeae multiantigen sequence type 835 isolate 8 harboring penA gene by disk diffusion method; format: functional
[28] = test system: Neisseria gonorrhoeae; assay: Antimicrobial activity against penicillin-,ofloxacin- and tetracyclin-resistant Neisseria gonorrhoeae multiantigen sequence type 835 isolate 9 harboring penA gene by disk diffusion method; format: functional
[29] = test system: Neisseria gonorrhoeae; assay: Antimicrobial activity against penicillin-,ofloxacin- and tetracyclin-resistant Neisseria gonorrhoeae multiantigen sequence type 835 isolate 10 harboring penA gene by disk diffusion method; format: functional
[30] = test system: Neisseria gonorrhoeae; assay: Antimicrobial activity against penicillin-,ofloxacin- and tetracyclin-resistant Neisseria gonorrhoeae multiantigen sequence type 2469 isolate 11 harboring penA gene by disk diffusion method; format: functional
[31] = test system: Neisseria gonorrhoeae; assay: Antimicrobial activity against penicillin-,ofloxacin- and tetracyclin-resistant Neisseria gonorrhoeae multiantigen sequence type 835 isolate 7 harboring penA gene by agar dilution method; format: functional
[32] = test system: Neisseria gonorrhoeae; assay: Antimicrobial activity against penicillin-,ofloxacin- and tetracyclin-resistant Neisseria gonorrhoeae multiantigen sequence type 835 isolate 8 harboring penA gene by agar dilution method; format: functional
[33] = test system: Neisseria gonorrhoeae; assay: Antimicrobial activity against penicillin-,ofloxacin- and tetracyclin-resistant Neisseria gonorrhoeae multiantigen sequence type 835 isolate 9 harboring penA gene by agar dilution method; format: functional
[34] = test system: Neisseria gonorrhoeae; assay: Antimicrobial activity against penicillin-,ofloxacin- and tetracyclin-resistant Neisseria gonorrhoeae multiantigen sequence type 835 isolate 10 harboring penA gene by agar dilution method; format: functional
[35] = test system: Neisseria gonorrhoeae; assay: Antimicrobial activity against penicillin-,ofloxacin- and tetracyclin-resistant Neisseria gonorrhoeae multiantigen sequence type 2469 isolate 11 harboring penA gene by agar dilution method; format: functional
[36] = test system: Neisseria gonorrhoeae; assay: Antimicrobial activity against penicillin-,ofloxacin- and tetracyclin-resistant Neisseria gonorrhoeae multiantigen sequence type 835 isolate 1 harboring penA gene by disk diffusion method; format: functional
[37] = test system: Neisseria gonorrhoeae; assay: Antimicrobial activity against penicillin-,ofloxacin- and tetracyclin-resistant Neisseria gonorrhoeae multiantigen sequence type 835 isolate 2 harboring penA gene by disk diffusion method; format: functional
[38] = test system: Neisseria gonorrhoeae; assay: Antimicrobial activity against penicillin-,ofloxacin- and tetracyclin-resistant Neisseria gonorrhoeae multiantigen sequence type 835 isolate 3 harboring penA gene by disk diffusion method; format: functional
[39] = test system: Neisseria gonorrhoeae; assay: Antimicrobial activity against penicillin-,ofloxacin- and tetracyclin-resistant Neisseria gonorrhoeae multiantigen sequence type 835 isolate 4 harboring penA gene by disk diffusion method; format: functional

Which results are given for CN[C@@H]1[C@H](O)[C@H](NC)[C@H]2O[C@@]3(O)C(=O)C[C@@H](C)O[C@H]3O[C@@H]2[C@H]1O [SPECTINOMYCIN]?
MIC [1]: 8 µg/mL (≈ 24.1 µM); MIC [2]: 16 µg/mL (≈ 48.1 µM); MIC [3]: 16 µg/mL (≈ 48.1 µM); MIC [4]: 8 µg/mL (≈ 24.1 µM); MIC [5]: 8 µg/mL (≈ 24.1 µM); MIC [6]: 8 µg/mL (≈ 24.1 µM); MIC [7]: 8 µg/mL (≈ 24.1 µM); MIC [8]: 8 µg/mL (≈ 24.1 µM); MIC [9]: 8 µg/mL (≈ 24.1 µM); MIC [10]: 8 µg/mL (≈ 24.1 µM); MIC [11]: 8 µg/mL (≈ 24.1 µM)

For Nc1nc(/C(=C/CC(=O)O)C(=O)N[C@@H]2C(=O)N3C(C(=O)O)=CCS[C@H]23)cs1 [CEFTIBUTEN], which “diameter of the inhibition zone (DIZ)” value [12] is on record?
Its value is 20 mm.

And the MIC [13]?
Its MIC is at most 1 µg/mL.

What about the “diameter of the inhibition zone (DIZ)” value [14] of the same compound?
The value was “>=30 mm”.

What about the bioavailability [15] of the same compound?
The bioavailability was 80%.

And the Cmax [16]?
The Cmax was 15000 ng/mL.

And the half-life [17]?
Its half-life is 2.4 h.

What about the Activity [18] of the same compound?
Its Activity is 65%.

And the MIC [19]?
The MIC was 8 µg/mL (≈ 19.5 µM).

What about the MIC [20] of the same compound?
Its MIC is 8 µg/mL (≈ 19.5 µM).

What about the MIC [21] of the same compound?
The MIC was 8 µg/mL (≈ 19.5 µM).

And the MIC [22]?
Its MIC is 8 µg/mL (≈ 19.5 µM).

And the MIC [23]?
The MIC was 8 µg/mL (≈ 19.5 µM).

And the MIC [24]?
Its MIC is 8 µg/mL (≈ 19.5 µM).

What about the “diameter of the inhibition zone (DIZ)” value [25] of the same compound?
Its value is 22 mm.

And the “diameter of the inhibition zone (DIZ)” value [26]?
The value was 25 mm.

What about the “diameter of the inhibition zone (DIZ)” value [27] of the same compound?
Its value is 21 mm.

And the “diameter of the inhibition zone (DIZ)” value [28]?
Its value is 27 mm.

And the “diameter of the inhibition zone (DIZ)” value [29]?
The value was 19 mm.

What about the “diameter of the inhibition zone (DIZ)” value [30] of the same compound?
The value was 23 mm.

What about the MIC [31] of the same compound?
Its MIC is 8 µg/mL (≈ 19.5 µM).

What about the MIC [32] of the same compound?
The MIC was 8 µg/mL (≈ 19.5 µM).

And the MIC [33]?
Its MIC is 8 µg/mL (≈ 19.5 µM).

And the MIC [34]?
Its MIC is 8 µg/mL (≈ 19.5 µM).

What about the MIC [35] of the same compound?
Its MIC is 8 µg/mL (≈ 19.5 µM).

What about the “diameter of the inhibition zone (DIZ)” value [36] of the same compound?
Its value is 26 mm.

And the “diameter of the inhibition zone (DIZ)” value [37]?
The value was 24 mm.

What about the “diameter of the inhibition zone (DIZ)” value [38] of the same compound?
The value was 25 mm.

And the “diameter of the inhibition zone (DIZ)” value [39]?
Its value is 22 mm.

Which results are given for C=CC1=C(C(=O)O)N2C(=O)[C@@H](NC(=O)/C(=N\OCC(=O)O)c3csc(N)n3)[C@H]2SC1 [CEFIXIME]?
bioavailability [15]: 50%; Cmax [16]: 3000 ng/mL; half-life [17]: 3.1 h; Activity [18]: 65%; MIC [1]: 0.25 µg/mL (≈ 0.551 µM); MIC [2]: 0.25 µg/mL (≈ 0.551 µM); MIC [3]: 0.25 µg/mL (≈ 0.551 µM); MIC [4]: 0.25 µg/mL (≈ 0.551 µM); MIC [5]: 0.25 µg/mL (≈ 0.551 µM); MIC [6]: 0.25 µg/mL (≈ 0.551 µM); MIC [7]: 0.25 µg/mL (≈ 0.551 µM); MIC [8]: 0.25 µg/mL (≈ 0.551 µM); MIC [9]: 0.125 µg/mL (≈ 0.276 µM); MIC [10]: 0.25 µg/mL (≈ 0.551 µM); MIC [11]: 0.125 µg/mL (≈ 0.276 µM)

What does the source list for CO/N=C(\C(=O)N[C@@H]1C(=O)N2C(C(=O)O)=C(CSc3nc(=O)c(O)nn3C)CS[C@H]12)c1csc(N)n1 [CEFTRIAXONE]?
MIC [1]: 0.064 µg/mL (≈ 0.115 µM); MIC [2]: 0.064 µg/mL (≈ 0.115 µM); MIC [3]: 0.064 µg/mL (≈ 0.115 µM); MIC [4]: 0.064 µg/mL (≈ 0.115 µM); MIC [5]: 0.064 µg/mL (≈ 0.115 µM); MIC [6]: 0.064 µg/mL (≈ 0.115 µM); MIC [7]: 0.064 µg/mL (≈ 0.115 µM); MIC [8]: 0.125 µg/mL (≈ 0.225 µM); MIC [9]: 0.064 µg/mL (≈ 0.115 µM); MIC [10]: 0.064 µg/mL (≈ 0.115 µM); MIC [11]: 0.064 µg/mL (≈ 0.115 µM)
